These are literature values, as cited in EP0642530B1, “DERIVATIVES OF DOLASTATIN” (BASF Aktiengesellschaft, priority 1992, dated 1993).

For the data set the following is noted: background statement, no method given.

With Dolastatin-10, the stability to acid result is “unstable to acid”.
